According to US20260042755A1, “GPR6 INVERSE AGONISTS” (MapLight Therapeutics, Inc., priority 2022, published 2026):

Columns and labels:
[1] = target: T1, GPR6 (Homo sapiens, UniProt P46095); assay: GPR6 antagonist functional cAMP assay (LANCE Ultra cAMP TR-FRET, CHO cells stably expressing GPR6); assay type: cell-based
T1 construct: expressed in transfected cells; host or cells: CHO cells
Outline: (§1)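 Cells in Krebs-Ringer buffer with 0.1% BSA and 150 μM Ro 20-1724 PDE inhibitor were exposed to compounds for 45 min at 37 °C (0.1% DMSO). cAMP was read by TR-FRET at 665 nm; IC50s came from 4-parameter fits normalized to DMSO and reference compound.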

[2] = target: T2, GPR3 (Homo sapiens, UniProt P46089); assay: GPR3 antagonist functional cAMP assay (LANCE Ultra cAMP TR-FRET, CHO cells stably expressing GPR3); assay type: cell-based
T2 construct: expressed in transfected cells; host or cells: CHO cells
T2 sequence (P46089 whole entry, species assumed): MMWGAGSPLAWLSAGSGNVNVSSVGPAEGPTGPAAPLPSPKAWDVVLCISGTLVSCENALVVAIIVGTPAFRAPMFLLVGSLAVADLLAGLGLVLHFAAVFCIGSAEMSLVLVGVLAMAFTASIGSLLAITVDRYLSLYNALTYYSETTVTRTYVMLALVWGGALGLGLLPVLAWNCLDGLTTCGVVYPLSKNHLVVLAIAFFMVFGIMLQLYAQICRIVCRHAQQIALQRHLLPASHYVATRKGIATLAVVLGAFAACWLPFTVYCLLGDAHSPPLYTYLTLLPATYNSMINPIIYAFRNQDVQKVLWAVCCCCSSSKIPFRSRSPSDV
Outline: as §1

[3] = CHO cells stably expressing GPR6, cAMP assay (Example 24)
[4] = CHO cells stably expressing GPR3, cAMP assay (Example 24)
[5] = CHO cells stably expressing GPR6, cAMP assay
[6] = CHO cells stably expressing GPR3, cAMP assay

T1 sequence (P46095 whole entry): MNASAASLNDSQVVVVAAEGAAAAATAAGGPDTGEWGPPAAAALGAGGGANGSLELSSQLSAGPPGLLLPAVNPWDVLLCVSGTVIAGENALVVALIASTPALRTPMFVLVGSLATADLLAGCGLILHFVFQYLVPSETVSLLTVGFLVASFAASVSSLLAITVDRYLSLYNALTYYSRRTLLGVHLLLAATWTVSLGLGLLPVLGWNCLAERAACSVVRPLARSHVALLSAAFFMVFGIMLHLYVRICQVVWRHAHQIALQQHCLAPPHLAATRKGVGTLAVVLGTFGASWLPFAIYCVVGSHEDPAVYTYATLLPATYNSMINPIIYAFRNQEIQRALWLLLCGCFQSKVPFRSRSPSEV

Row | IC50 [1, 3] [nM] | IC50 [2, 4] [nM] | IC50 ([1]; procedure of Example 24) [nM] | IC50 ([2]; procedure of Example 24) [nM] | Structure (SMILES) | also measured
1 | 1000 to 30000 | 1000 to 30000 | – | – | COc1cncc(-c2nc3cnc(C(O)C(C)(C)O)cc3nc2N2CCN(Cc3ccc(F)cc3F)CC2)n1 (single isomer, unassigned) [Compound 94, 1-(2-(4-(2,4-difluorobenzyl)piperazin-1-yl)-3-(6-methoxypyrazin-2-yl)pyrido[3,4-b]pyrazin-7-yl)-2-methylpropane-1,2-diol] | –
2 | – | – | 100 to 1000 | 100 to 1000 | CC(C)(O)C(O)c1cc2nc(-c3cnn(CF)c3)c(N3CCC(=Cc4ccc(F)cc4F)CC3)nc2cn1 (single isomer, unassigned) [Compound 771] | –
3 | – | – | 1000 to 30000 | 1000 to 30000 | CC(=O)N1CCc2nc(N3CCN(Cc4c(F)cc(F)cc4F)CC3)c(-c3cnn(C)c3)nc2C1 [Compound 343, 1-[3-(1-methyl-1H-pyrazol-4-yl)-2-{4-[(2,4,6-trifluorophenyl)methyl]piperazin-1-yl}-5H,6H,7H,8H-pyrido[3,4-b]pyrazin-6-yl]ethan-1-one] | –
4 | – | – | 100 to 1000 | 1000 to 30000 | CC(C)(O)Cc1cc2nc(-c3cnn(C4CC4)c3)c(N3CCC(Oc4ccc(F)cc4F)CC3)nc2cn1 [Compound 704, 1-{2-(1-cyclopropyl-4-pyrazolyl)-3-[4-(2,4-difluorophenoxy)-1-piperidyl]-1,4,6-triaza-7-naphthyl}-2-methyl-2-propanol] | –
5 | 1000 to 30000 | 100 to 1000 | – | – | COCC1(Oc2ccc(F)cc2F)CCN(c2nc3ccncc3nc2-c2cn[nH]c2)CC1 [Compound 63, 2-(4-(2,4-difluorophenoxy)-4-(methoxymethyl)piperidin-1-yl)-3-(1H-pyrazol-4-yl)pyrido[3,4-b]pyrazine] | –
6 | – | – | 1000 to 30000 | 1000 to 30000 | CC(=O)N1CCc2nc(N3CCC(=C(C)c4ccc(F)cc4F)CC3)c(-c3cnn(C)c3)nc2C1 [Compound 718, 1-(2-{4-[1-(2,4-difluorophenyl)ethylidene]-1-piperidyl}-3-(1-methyl-4-pyrazolyl)-5,6,7,8-tetrahydro-1,4,6-triaza-6-naphthyl)-1-ethanone] | –
7 | – | – | 1000 to 30000 | 1000 to 30000 | CC(=O)N1CCc2nc(N3CCN(Cc4c(F)ccc(F)c4F)CC3)c(-c3cnn(C)c3)nc2C1 [Compound 354, 1-[3-(1-methyl-1H-pyrazol-4-yl)-2-{4-[(2,3,6-trifluorophenyl)methyl]piperazin-1-yl}-5H,6H,7H,8H-pyrido[3,4-b]pyrazin-6-yl]ethan-1-one] | –
8 | – | – | 1000 to 30000 | 1000 to 30000 | Cn1cc(-c2nc3cnccc3nc2N2CC[C@H](Oc3ccc(F)cc3F)[C@H](F)C2)cn1 (single isomer, unassigned) [Compound 332] | –
9 | 100 to 1000 | 1000 to 30000 | – | – | CC(=O)N1CCc2nc(N3CCC(Oc4cc(Cl)c(F)cc4F)CC3)c(-c3cnn(C)c3)nc2C1 [Compound 458, 1-{2-[4-(5-chloro-2,4-difluorophenoxy)piperidin-1-yl]-3-(1-methyl-1H-pyrazol-4-yl)-5H,6H,7H,8H-pyrido[3,4-b]pyrazin-6-yl}ethan-1-one] | –
10 | – | – | – | – | CC(=O)N1CCc2nc(N3CCC(=Cc4ccc(F)cc4)CC3)c(-c3cnn(C)c3)nc2C1 [Compound 560, 1-(2-{4-[(p-fluorophenyl)methylene]-1-piperidyl}-3-(1-methyl-4-pyrazolyl)-5,6,7,8-tetrahydro-1,4,6-triaza-6-naphthyl)-1-ethanone] | IC50 [1, 5]: < 100 nM; IC50 [2, 6]: 100 to 1000 nM
11 | 1000 to 30000 | 1000 to 30000 | – | – | CC(=O)N1CCc2nc(N3CCC(Oc4cc(C#N)ccc4F)CC3)c(-c3cnn(C)c3)nc2C1 [Compound 424, 3-({1-[6-acetyl-3-(1-methyl-1H-pyrazol-4-yl)-5H,6H,7H,8H-pyrido[3,4-b]pyrazin-2-yl]piperidin-4-yl}oxy)-4-fluorobenzonitrile] | –
12 | – | – | – | – | COC[C@@H]1C[C@H]1c1nc2c(nc1N1CCC(Oc3ccc(F)cc3F)CC1)CCN(C(C)=O)C2 [Compound 547, 1-{3-[(1R,2R)-2-(methoxymethyl)cyclopropyl]-2-[4-(2,4-difluorophenoxy)-1-piperidyl]-5,6,7,8-tetrahydro-1,4,6-triaza-6-naphthyl}-1-ethanone] | IC50 [1, 5]: 1000 to 30000 nM; IC50 [2, 6]: 1000 to 30000 nM
13 | 1000 to 30000 | 1000 to 30000 | – | – | Cn1cc(-c2nc3cncc(Cl)c3nc2N2CCC(Oc3ccc(F)cc3F)CC2)cn1 [Compound 411, 1-[8-chloro-3-(1-methyl-1H-pyrazol-4-yl)pyrido[3,4-b]pyrazin-2-yl]-4-(2,4-difluorophenoxy)piperidine] | –
14 | 100 to 1000 | 1000 to 30000 | – | – | CC(=O)N1CCc2nc(N3CCC(Oc4ccc(F)cc4F)CC3)c(-c3cnn(-c4ccccc4)c3)nc2C1 [Compound 76, 1-{2-[4-(2,4-difluorophenoxy)piperidin-1-yl]-3-(1-phenyl-1H-pyrazol-4-yl)-5H,6H,7H,8H-pyrido[3,4-b]pyrazin-6-yl}ethan-1-one] | –
15 | 1000 to 30000 | 1000 to 30000 | – | – | O=C(C1CNC1)N1CCc2nc(N3CCC(Oc4ccc(F)cc4F)CC3)c(-c3cn[nH]c3)nc2C1 [Compound 153, 1-[6-(azetidine-3-carbonyl)-3-(1H-pyrazol-4-yl)-5H,6H,7H,8H-pyrido[3,4-b]pyrazin-2-yl]-4-(2,4-difluorophenoxy)piperidine] | –
16 | – | – | – | – | CC(C)(O)C(O)c1cc2nc(-c3cnn(CF)c3)c(N3CCC(Oc4ccc(F)cc4F)CC3)nc2cn1 (single isomer, unassigned) [Compound 592] | IC50 [1, 5]: < 100 nM; IC50 [2, 6]: 100 to 1000 nM

Row | IC50 [1, 3] [nM] | IC50 [2, 4] [nM] | IC50 ([1]; procedure of Example 24) [nM] | IC50 ([2]; procedure of Example 24) [nM] | Structure (SMILES) | also measured
17 | ≥ 30000 | 1000 to 30000 | – | – | CC(=O)N1CCc2nc(N3CCC(C(=O)NCc4ccc(F)cc4F)C3)c(-c3cnn(C)c3)nc2C1 (centres unmarked) [Compound 386, 1-[6-acetyl-3-(1-methyl-1H-pyrazol-4-yl)-5H,6H,7H,8H-pyrido[3,4-b]pyrazin-2-yl]-N-[(2,4-difluorophenyl)methyl] pyrrolidine-3-carboxamide] | –
18 | – | – | 100 to 1000 | 1000 to 30000 | COC[C@@](C)(O)c1cc2nc(N3CCC(Oc4ccc(F)cc4F)CC3)c(-c3cnn(C)c3)nc2cn1 (single isomer, unassigned) [Compound 615] | –
19 | – | – | – | – | CC(C)(O)[C@@H](O)c1cc2nc(N3CCC(Oc4ccc(F)cc4F)CC3)c(-c3cnn(CF)c3)nc2cn1 (single isomer, unassigned) [Compound 597] | IC50 [1, 5]: 100 to 1000 nM; IC50 [2, 6]: 1000 to 30000 nM
20 | – | – | – | – | CCn1cc(-c2nc3cnc([C@@H](O)C(C)(C)O)cc3nc2N2CCC(Oc3ccc(F)cc3F)CC2)cn1 (single isomer, unassigned) [Compound 570] | IC50 [1, 5]: < 100 nM; IC50 [2, 6]: 1000 to 30000 nM
21 | – | – | 100 to 1000 | 1000 to 30000 | CC(C)(O)[C@@](C)(O)c1cc2nc(-c3cnn(CF)c3)c(N3CCC(Oc4ccc(F)cc4F)CC3)nc2cn1 (single isomer, unassigned) [Compound 783] | –
22 | 100 to 1000 | 1000 to 30000 | – | – | CC(=O)N1CCc2nc(N3CCC(Oc4ccc(F)cc4F)CC3)c(-c3cccc(Cl)n3)nc2C1 [Compound 137, 1-(3-(6-chloropyridin-2-yl)-2-(4-(2,4-difluorophenoxy)piperidin-1-yl)-7,8-dihydropyrido[3,4-b]pyrazin-6(5H)-yl)ethanone] | –
23 | ≥ 30000 | ≥ 30000 | – | – | CC(=O)N1CCc2nc(N3CCC(Oc4ccc(F)cc4F)CC3)c(-c3ccc[nH]c3=O)nc2C1 [Compound 157, 3-{6-acetyl-2-[4-(2,4-difluorophenoxy)piperidin-1-yl]-5H,6H,7H,8H-pyrido[3,4-b]pyrazin-3-yl}-1,2-dihydropyridin-2-one] | –
24 | < 100 | 1000 to 30000 | – | – | CC(C)(O)[C@@H](O)c1cc2nc(N3CCN(Cc4ccc(F)cc4F)CC3)c(-c3cnn(C(F)F)c3)nc2cn1 (single isomer, unassigned) [Compound 397] | –
25 | 1000 to 30000 | 1000 to 30000 | – | – | COC(=O)c1cc2nc(N3CCC(Oc4ccc(F)cc4F)CC3)c(-c3cncc(OC)n3)nc2cn1 [Compound 221, methyl 2-[4-(2,4-difluorophenoxy)piperidin-1-yl]-3-(6-methoxypyrazin-2-yl)pyrido[3,4-b]pyrazine-7-carboxylate] | –
26 | – | – | 1000 to 30000 | 1000 to 30000 | CC(=O)N1CCc2nc(N3CCN(Cc4ccc(F)cc4C)CC3)c(-c3cnn(C)c3)nc2C1 [Compound 347, 1-(2-{4-[(4-fluoro-2-methylphenyl)methyl]piperazin-1-yl}-3-(1-methyl-1H-pyrazol-4-yl)-5H,6H,7H,8H-pyrido[3,4-b]pyrazin-6-yl)ethan-1-one] | –
27 | – | – | 1000 to 30000 | 1000 to 30000 | CCOc1ccc(CN2CCN(c3nc4c(nc3-c3cnn(C)c3)CN(C(C)=O)CC4)CC2)c(F)c1 [Compound 362, 1-(2-{4-[(4-ethoxy-2-fluorophenyl)methyl]piperazin-1-yl}-3-(1-methyl-1H-pyrazol-4-yl)-5H,6H,7H,8H-pyrido[3,4-b]pyrazin-6-yl)ethan-1-one] | –
28 | – | – | – | – | CC(=O)N1CCc2nc(N3CCN(Cc4cc(F)ccc4Cl)CC3)c(-c3cnn(C)c3)nc2C1 [Compound 506, 1-(2-{4-[(2-chloro-5-fluorophenyl)methyl]-1-piperazinyl}-3-(1-methyl-4-pyrazolyl)-5,6,7,8-tetrahydro-1,4,6-triaza-6-naphthyl)-1-ethanone] | IC50 [1, 5]: 100 to 1000 nM; IC50 [2, 6]: 1000 to 30000 nM
29 | – | – | 100 to 1000 | 1000 to 30000 | CC(C)(O)[C@@](C)(O)c1cc2nc(-c3cnn(CF)c3)c(N3CCN(Cc4ccccc4F)CC3)nc2cn1 (single isomer, unassigned) [Compound 715] | –
30 | – | – | 100 to 1000 | 1000 to 30000 | CC(=O)N1CCc2nc(N3CCC(O)(Cc4ccc(F)cc4F)CC3)c(-c3cnn(C)c3)nc2C1 [Compound 699, 1-(2-(4-(2,4-difluorobenzyl)-4-hydroxypiperidin-1-yl)-3-(1-methyl-1H-pyrazol-4-yl)-7,8-dihydropyrido[3,4-b]pyrazin-6(5H)-yl)ethan-1-one] | –
31 | – | – | < 100 | 1000 to 30000 | N#CN1CCc2nc(N3CCC(Oc4ccc(F)cc4F)CC3)c(-c3ccc(F)c(N)n3)nc2C1 [Compound 671, 6-{6-cyano-2-[4-(2,4-difluorophenoxy)-1-piperidyl]-5,6,7,8-tetrahydro-1,4,6-triaza-3-naphthyl}-3-fluoro-2-pyridylamine] | –
